Source: patent US8192962B2, “Processes for detecting toxic substances” (Daikin Industries, Ltd., priority 2001, dated 2012)

Tested on: Stress protein genes
Assay: DNA chip mRNA expression in yeast, stress protein genes (Table 6)
Type: cell-based, Saccharomyces cerevisiae S288C
In short: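 Whole-genome yeast DNA chip hybridization (65° C., >12 h) of Cy-labeled cDNA from S288C cells exposed 2 h at 25° C. to a sub-lethal toxicant dose in YPD; value is intensity relative to chemical-free control.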

Measured: The level of expressed mRNA in the presence of chemical substance/The level of expressed mRNA in the absence of chemical substance

C[S+](C)[O-] [(15), dimethylsulfoxide]
6.3: yeast gene YFL014W
1.0: yeast gene YBR126C | yeast gene YCR083W | yeast gene YDL025C | yeast gene YER042W | yeast gene YHL046C | yeast gene YIL033C | yeast gene YIR037W | yeast gene YJL165C | yeast gene YKL210W | yeast gene YML007W | yeast gene YMR021C | yeast gene YOL064C | yeast gene YPL059W
2.7: yeast gene YPR005C
0.4: yeast gene YEL039C
1.6: yeast gene YBR169C | yeast gene YHR104W | yeast gene YJR090C
0.8: yeast gene YDR033W | yeast gene YDR436W | yeast gene YEL030W | yeast gene YER125W | yeast gene YFL016C
1.3: yeast gene YDR513W | yeast gene YKL161C | yeast gene YLL024C | yeast gene YMR186W
2.3: yeast gene YJR045C
1.4: yeast gene YFL020C | yeast gene YFR052W | yeast gene YOR027W | yeast gene YPL194W
2.2: yeast gene YDR098C
0.6: yeast gene YBR054W | yeast gene YDR258C | yeast gene YHL028W | yeast gene YOR009W | yeast gene YOR010C
0.3: yeast gene YKR053C
3.9: yeast gene YLR109W
1.7: yeast gene YDR293C | yeast gene YER057C | yeast gene YJL158C
4.9: yeast gene YBR072W
1.5: yeast gene YGL181W | yeast gene YLL060C | yeast gene YPL223C
0.9: yeast gene YBR044C | yeast gene YDL022W | yeast gene YGL073W | yeast gene YIL011W | yeast gene YLL026W | yeast gene YLR006C | yeast gene YML070W | yeast gene YOR008C
3.3: yeast gene YBR067C
2.5: yeast gene YDR155C | yeast gene YMR173W
1.2: yeast gene YHR057C | yeast gene YIR038C | yeast gene YJL128C | yeast gene YKL164C | yeast gene YPL240C
6.1: yeast gene YDR077W
1.1: yeast gene YNR076W | yeast gene YOL161C | yeast gene YPL106C
2.0: yeast gene YDR519W
0.7: yeast gene YAL015C | yeast gene YGL115W | yeast gene YGR088W | yeast gene YNL064C | yeast gene YNL160W | yeast gene YPL140C
